Drawing on patent US11058688B2, “Imidazopiperazine inhibitors of transcription activating proteins” (Board of Regents, The University of Texas System, priority 2018, dated 2021), this text covers IC50 for 25 molecules.

The target in assay [1] is GST-CBP(1081-1197) bromodomain (Homo sapiens (Human), UniProt Q92793). Briefly: CBP AlphaScreen Assay. Conditions: binding to biotin-H4(1-21) Ac-K5/8/12/16 peptide. How it is done: (§1) Specific binding of the CBP or BRD4 bromodomain to the acetylated peptide derived from the H4 histone substrate (tetra acetylated H4(1-21) Ac-K5/8/12/16) was measured in absence or presence of inhibitors.
GST-CBP(1081-1197) bromodomain, sequence (Q92793 1081-1197): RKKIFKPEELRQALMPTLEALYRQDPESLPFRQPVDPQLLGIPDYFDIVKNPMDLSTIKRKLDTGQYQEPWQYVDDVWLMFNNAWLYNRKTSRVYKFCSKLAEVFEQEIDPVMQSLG
(§2) The standard dose response curves were fitted by Genedata Screener software using the variable-slope model: Signal=Signalnegative control+(SignalDMSO control−Signalnegative control)/(1+(IC50/Dose)^Hill slope).
(§3) Only Signal and Dose in the equation were treated as known values.
On the technique in general: Alpha assays give light when donor and acceptor beads are brought close together.

Assay [2] deals with BRD4(49-170) bromodomain (Homo sapiens (Human), UniProt O60885). Briefly: BRD4 AlphaScreen Assay. The settings on record: binding to biotin-H4(1-21) Ac-K5/8/12/16 peptide. How it is done:
as §1, §2, §3

pIC50: −log10 of the molar value. A value given as a limit tells only on which side of the number the result lay.

Broadly, the pIC50 is −log10 of the IC50, conventionally taken in molar units. A higher pIC50 goes with a small IC50. Consider `CC(=O)N1CCn2c(C3CC3)nc(-c3ccc4c(c3)c(-c3cnn(C)c3)nn4C)c2C1` [Example 1, 1-(3-cyclopropyl-1-(1-methyl-3-(1-methyl-1H-pyrazol-4-yl)-1H-indazol-5-yl)-5,6-dihydroimidazo[1,5-a]pyrazin-7(8H)-yl)ethan-1-one], for which the pIC50 is 7.33 in assay [1] and less than 5.00 in assay [2].

Regarding `CNC(=O)N1CCn2c(C3CC3)nc(-c3ccnc4cc(-c5cnn(C)c5)c(OC(F)(F)F)cc34)c2C1` [Example 2, 3-cyclopropyl-N-methyl-1-(7-(1-methyl-1H-pyrazol-4-yl)-6-(trifluoromethoxy)quinolin-4-yl)-5,6-dihydroimidazo[1,5-a]pyrazine-7(8H)-carboxamide], the negative-log IC50 (pIC50) in assay [1] is 8.52; in assay [2], 5.05.

As to `CNC(=O)N1CCn2c(C3CC3)nc(N3CCCc4cc(-c5cnn(C)c5)c(C(F)F)cc43)c2C1` [Example 3, 3-cyclopropyl-1-(7-(difluoromethyl)-6-(1-methyl-1H-pyrazol-4-yl)-3,4-dihydroquinolin-1(2H)-yl)-N-methyl-5,6-dihydroimidazo[1,5-a]pyrazine-7(8H)-carboxamide], the pIC50 is 8.30 in assay [1] and less than 5.00 in assay [2].

Molecule `COC(=O)N1CCn2c(C3CCOC3)nc(-c3ccc4c(c3)c(-c3cnn(C)c3)nn4C)c2C1` (stereo not drawn) [Example 5, Methyl 1-(1-methyl-3-(1-methyl-1H-pyrazol-4-yl)-1H-indazol-5-yl)-3-(tetrahydrofuran-3-yl)-5,6-dihydroimidazo[1,5-a]pyrazine-7(8H)-carboxylate] showed a pIC50 in assay [2] of 4.86.

Consider `CNC(=O)N1CCn2c(C3CCOC3)nc(-c3ccc4c(c3)c(-c3cnn(C)c3)nn4C)c2C1` (stereo not drawn) [Example 6, N-Methyl-1-(1-methyl-3-(1-methyl-1H-pyrazol-4-yl)-1H-indazol-5-yl)-3-(tetrahydrofuran-3-yl)-5,6-dihydroimidazo[1,5-a]pyrazine-7(8H)-carboxamide], for which the negative-log IC50 (pIC50) in assay [1] was 7.62; in assay [2] it was 5.09.

On to `CNC(=O)N1CCn2c(C3CN(C)C3)nc(-c3ccc4c(c3)c(-c3cnn(C)c3)nn4C)c2C1` [Example 8, N-Methyl-1-(1-methyl-3-(1-methyl-1H-pyrazol-4-yl)-1H-indazol-5-yl)-3-(1-methylazetidin-3-yl)-5,6-dihydroimidazo[1,5-a]pyrazine-7(8H)-carboxamide], for which the pIC50 is 6.94 in assay [1] and less than 5.00 in assay [2].

For `CNC(=O)N1CCn2c(C3CN(C(C)=O)C3)nc(-c3ccc4c(c3)c(-c3cnn(C)c3)nn4C)c2C1` [Example 9, 3-(1-Acetylazetidin-3-yl)-N-methyl-1-(1-methyl-3-(1-methyl-1H-pyrazol-4-yl)-1H-indazol-5-yl)-5,6-dihydroimidazo[1,5-a]pyrazine-7(8H)-carboxamide], the values for the negative logarithm of the IC50 (pIC50) in assay [1] and in assay [2] were 7.20 and less than 5.00, respectively.

Take `CC(=O)N1CCn2cnc(-c3ccc4c(c3)c(-c3cnn(C)c3)nn4C)c2C1` [Example 10, 1-(1-(1-Methyl-3-(1-methyl-1H-pyrazol-4-yl)-1H-indazol-5-yl)-5,6-dihydroimidazo[1,5-a]pyrazin-7(8H)-yl)ethanone]: the values for the pIC50 in assay [1] and in assay [2] were 6.71 and less than 5.00, respectively.

`CNC(=O)N1CCn2cnc(-c3ccc4c(c3)c(-c3cnn(C)c3)nn4C)c2C1` [Example 11, N-Methyl-1-(1-methyl-3-(1-methyl-1H-pyrazol-4-yl)-1H-indazol-5-yl)-5,6-dihydroimidazo[1,5-a]pyrazine-7(8H)-carboxamide]: the results for the pIC50 in assay [1] and in assay [2] were 7.59 and less than 5.00, respectively.

For `CC(=O)N1CCn2c(C3CN(C(C)=O)C3)nc(-c3ccc4c(c3)c(-c3cnn(C)c3)nn4C)c2C1` [Example 12, 1-(3-(7-Acetyl-1-(1-methyl-3-(1-methyl-1H-pyrazol-4-yl)-1H-indazol-5-yl)-5,6,7,8-tetrahydroimidazo[1,5-a]pyrazin-3-yl)azetidin-1-yl)ethan-1-one], the negative logarithm of the IC50 (pIC50) in assay [2] was less than 5.00.

Take `CC(=O)N1CCn2c(C3CN(C)C3)nc(-c3ccc4c(c3)c(-c3cnn(C)c3)nn4C)c2C1` [Example 13, 1-(1-(1-Methyl-3-(1-methyl-1H-pyrazol-4-yl)-1H-indazol-5-yl)-3-(1-methylazetidin-3-yl)-5,6-dihydroimidazo[1,5-a]pyrazin-7(8H)-yl)ethanone]: the pIC50 in assay [1] is 5.86; in assay [2] it was less than 5.00.

`CC(=O)N1CCn2c(C3CCS(=O)(=O)CC3)nc(-c3ccc4c(c3)c(-c3cnn(C)c3)nn4C)c2C1` [Example 14, 1-[3-(1,1-Dioxothian-4-yl)-1-[1-methyl-3-(1-methylpyrazol-4-yl)indazol-5-yl]-6,8-dihydro-5H-imidazo[1,5-a]pyrazin-7-yl]ethanone]: the pIC50 in assay [1] was 6.54; in assay [2], less than 4.60.

As for `CNC(=O)N1CCn2c(C3CCS(=O)(=O)CC3)nc(-c3ccc4c(c3)c(-c3cnn(C)c3)nn4C)c2C1` [Example 15, 3-(1,1-Dioxothian-4-yl)-N-methyl-1-[1-methyl-3-(1-methylpyrazol-4-yl)indazol-5-yl]-6,8-dihydro-5H-imidazo[1,5-a]pyrazine-7-carboxamide], the negative logarithm of the IC50 (pIC50) in assay [1] is 7.34; in assay [2] it was 4.66.

As to `CC(=O)N1CCn2c(N3CCOCC3)nc(-c3ccc4c(c3)c(-c3cnn(C)c3)nn4C)c2C1` [Example 16, 1-(1-(1-Methyl-3-(1-methyl-1H-pyrazol-4-yl)-1H-indazol-5-yl)-3-morpho-lino-5,6-dihydroimidazo[1,5-a]pyrazin-7(8H)-yl)ethanone], the pIC50 in assay [1] is 6.41; in assay [2], less than 4.60.

Turning to `CNC(=O)c1ccc(-c2cc3cccc(-c4nc(C5CC5)n5c4CN(C(=O)NC)CC5)c3cn2)cn1` [Example 17, 3-Cyclopropyl-N-methyl-1-(3-(6-(methylcarbamoyl)pyridin-3-yl)isoquinolin-8-yl)-5,6-dihydroimidazo[1,5-a]pyrazine-7(8H)-carboxamide], the pIC50 is 9.00 in assay [1] and 5.29 in assay [2].

`CNC(=O)N1CCn2c(C3CC3)nc(-c3cccc4cc(N5CCOCC5)ncc34)c2C1` [Example 18, 3-cyclopropyl-N-methyl-1-(3-morpholinoisoquinolin-8-yl)-5,6-dihydroimidazo[1,5-a]pyrazine-7(8H)-carboxamide]: the negative logarithm of the IC50 (pIC50) was 7.30 in assay [1] and less than 4.60 in assay [2].

Consider `CNC(=O)N1CCn2c(C3CC3)nc(-c3cccc4nc(-c5cnn(C)c5)c(C#N)cc34)c2C1` [Example 19, 1-(3-Cyano-2-(1-methyl-1H-pyrazol-4-yl)quinolin-5-yl)-3-cyclopropyl-N-methyl-5,6-dihydroimidazo[1,5-a]pyrazine-7(8H)-carboxamide], for which the pIC50 in assay [1] was 8.30; in assay [2], less than 4.60.

Regarding `CNC(=O)N1CCn2c(C3CC(F)(F)C3)nc(-c3cccc4nc(-c5cnn(C)c5)c(C(F)(F)F)cc34)c2C1` [Example 20, 3-(3,3-Difluorocyclobutyl)-N-methyl-1-(2-(1-methyl-1H-pyrazol-4-yl)-3-(trifluoromethyl)quinolin-5-yl)-5,6-dihydroimidazo[1,5-a]pyrazine-7(8H)-carboxamide], the negative logarithm of the IC50 (pIC50) was 7.74 in assay [1] and 4.60 in assay [2].

With `CNC(=O)N1CCn2c(C3CC3)nc(-c3cccc4cc(C5CCOCC5)ncc34)c2C1` [Example 21, 3-Cyclopropyl-N-methyl-1-(3-(tetrahydro-2H-pyran-4-yl)isoquinolin-8-yl)-5,6-dihydroimidazo[1,5-a]pyrazine-7(8H)-carboxamide], the pIC50 in assay [1] is 7.70; in assay [2], less than 4.60.

`CNC(=O)N1CCn2c(C3CC3)nc(-c3c(F)ccc4cc(-c5cnc(C)s5)ncc34)c2C1` [Example 22, 3-Cyclopropyl-1-(7-fluoro-3-(2-methylthiazol-5-yl)isoquinolin-8-yl)-N-methyl-5,6-dihydroimidazo[1,5-a]pyrazine-7(8H)-carboxamide]: the figures for the pIC50 in assay [1] and in assay [2] were 8.52 and 5.15, respectively.

Turning to `CNC(=O)N1CCn2c(C3CC3)nc(-c3cccc4cc(-c5cnc(C)s5)ncc34)c2C1` [Example 23, 3-Cyclopropyl-N-methyl-1-(3-(2-methylthiazol-5-yl)isoquinolin-8-yl)-5,6-dihydroimidazo[1,5-a]pyrazine-7(8H)-carboxamide], the values for the negative logarithm of the IC50 (pIC50) in assay [1] and in assay [2] were 9.00 and 5.41, respectively.

Take `CNC(=O)N1CCn2c(C3CC3)nc(-c3cccc4nc(N5CCOCC5)c(C#N)cc34)c2C1` [Example 24, 1-(3-Cyano-2-morpholinoquinolin-5-yl)-3-cyclopropyl-N-methyl-5,6-dihydroimidazo[1,5-a]pyrazine-7(8H)-carboxamide]: the pIC50 is 8.22 in assay [1] and 5.04 in assay [2].

As for `CC(=O)N1CCn2c(C3CC3)nc(-c3ccc4c(c(-c5cnn(C)c5)nn4C)c3F)c2C1` [Example 25, 1-(3-cyclopropyl-1-(4-fluoro-1-methyl-3-(1-methyl-1H-pyrazol-4-yl)-1H-indazol-5-yl)-5,6-dihydroimidazo[1,5-a]pyrazin-7(8H)-yl)ethan-1-one], the negative-log IC50 (pIC50) was 7.24 in assay [1] and 4.80 in assay [2].

For `CC(=O)N1CCn2c(C3CC3)nc(-c3cnc4c(c3)c(-c3cnn(C)c3)nn4C)c2C1` [Example 26, 1-(3-cyclopropyl-1-(1-methyl-3-(1-methyl-1H-pyrazol-4-yl)-1H-pyrazolo[3,4-b]pyridin-5-yl)-5,6-dihydroimidazo[1,5-a]pyrazin-7(8H)-yl)ethan-1-one], the negative logarithm of the IC50 (pIC50) in assay [1] was 6.74; in assay [2], less than 4.60.

With `CC(=O)N1CCn2c(C3CC3)nc(-c3ccc4nn(C)c(-c5cnn(C)c5)c4c3F)c2C1` [Example 27, 1-(3-Cyclopropyl-1-(4-fluoro-2-methyl-3-(1-methyl-1H-pyrazol-4-yl)-2H-indazol-5-yl)-5,6-dihydroimidazo[1,5-a]pyrazin-7(8H)-yl)ethan-1-one], the pIC50 in assay [1] is 5.91; in assay [2], less than 4.60.
